Key:
WDR5 [1] = target: T1, WDR5 (Homo sapiens, UniProt P61964); test: Surface Plasmon Resonance (SPR) assay; type: binding; parameters: Full length WDR5 with an N-terminal His tag and C-terminal AviTag; His tag (N); made in house; host or cells: E. coli; conditions: read-out: SPR Kd
Outline: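 Full-length biotinylated WDR5 (N-His, C-AviTag, E. coli) captured (~3000 RU) on streptavidin SA chip; Biacore T200. HBS-EP pH 7.4 plus 5% DMSO running buffer, 40 μl/min.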

WDR5 [2] = target: T1, WDR5; test: Fluorescence Polarization (FP) binding assay
Outline: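 Displacement of fluorescein-labelled H3 (1-15) (30 nM, with 0.3 μM WDR5) or 9-Ala-FAM (20 nM, with 0.05 μM WDR5) in 80 mM sodium phosphate pH 6.5, 20 mM KCl, 0.008% Triton X-100. FP read at 485/528 nm (H3) or 480/540 nm (9-Ala-FAM); Kdisp from hyperbolic fit, mean of quadruplicates.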

MV4-11 cells = test: Cell proliferation assay (ATPlite); type: cell-based; conditions: Homo sapiens, 120 h; MV4-11 cells, five days; read-out: GI MV411 EC50
Outline: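 Cells seeded at 1,000/well in Alpha-MEM with 10% FBS, treated with compound over a 10-point range (top 10 μM) or DMSO. Grown five days at 37° C, 5% CO2; viability by ATPlite luminescence.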

SMILES	Kd (WDR5 [1]) [µM]	IC50 (WDR5 [2]) [µM]	EC50 (MV4-11 cells) [µM]
COc1cnc(N2CCC=C(c3c(F)cc(N4C[C@@H](C)N(C)[C@@H](C)C4)c(NC(=O)c4c[nH]c(=O)cc4C(F)(F)F)c3F)C2)nc1 [Example 138, N-(2,4-difluoro-3-(1-(5-methoxypyrimidin-2-yl)-1,2,5,6-tetrahydropyridin-3-yl)-6-((3S,5R)-3,4,5-trimethylpiperazin-1-yl)phenyl)-6-oxo-4-(trifluoromethyl)-1,6-dihydropyridine-3-carboxamide]	0.00193	0.0195	0.109
COc1cc(N2CC=C(c3c(F)cc(N4C[C@@H](C)N(C)[C@@H](C)C4)c(NC(=O)c4c[nH]c(=O)cc4C(F)(F)F)c3F)CC2)ncn1 [Example 140, N-(2,4-difluoro-3-(1-(6-methoxypyrimidin-4-yl)-1,2,3,6-tetrahydropyridin-4-yl)-6-((3S,5R)-3,4,5-trimethylpiperazin-1-yl)phenyl)-6-oxo-4-(trifluoromethyl)-1,6-dihydropyridine-3-carboxamide]	0.0014	0.0145	0.0309
C[C@@H]1CN(c2cc(F)c(C3=CCN(C(=O)OC4(C)CCC4)C3)c(F)c2NC(=O)c2c[nH]c(=O)cc2C(F)(F)F)C[C@H](C)N1C [Example 141, 1-Methylcyclobutyl 3-(2,6-difluoro-3-(6-oxo-4-(trifluoromethyl)-1,6-dihydropyridine-3-carboxamido)-4-((3S,5R)-3,4,5-trimethylpiperazin-1-yl)phenyl)-2,5-dihydro-1H-pyrrole-1-carboxylate]	0.00096	0.0101	0.0312
COc1cc(N2CCC=C(c3c(F)cc(N4C[C@@H](C)N(C)[C@@H](C)C4)c(NC(=O)c4c[nH]c(=O)cc4C(F)(F)F)c3F)C2)ncn1 [Example 142, N-(2,4-difluoro-3-(1-(6-methoxypyrimidin-4-yl)-1,2,5,6-tetrahydropyridin-3-yl)-6-((3S,5R)-3,4,5-trimethylpiperazin-1-yl)phenyl)-6-oxo-4-(trifluoromethyl)-1,6-dihydropyridine-3-carboxamide]	0.00176	0.0132	0.0383
COc1cc(N2CC=C(c3c(F)cc(N4C[C@@H](C)N(C)[C@@H](C)C4)c(NC(=O)c4c[nH]c(=O)cc4C(F)(F)F)c3F)C2)ncn1 [Example 143, N-(2,4-difluoro-3-(1-(6-methoxypyrimidin-4-yl)-2,5-dihydro-1H-pyrrol-3-yl)-6-((3S,5R)-3,4,5-trimethylpiperazin-1-yl)phenyl)-6-oxo-4-(trifluoromethyl)-1,6-dihydropyridine-3-carboxamide]	0.00092	0.0144	0.0177
C[C@@H]1CN(c2cc(F)c(C3=CCN(C(=O)OC4(C)CCC4)CC3)c(F)c2NC(=O)c2c[nH]c(=O)cc2C(F)(F)F)C[C@H](C)N1C [Example 144, 1-Methylcyclobutyl 4-(2,6-difluoro-3-(6-oxo-4-(trifluoromethyl)-1,6-dihydropyridine-3-carboxamido)-4-((3S,5R)-3,4,5-trimethylpiperazin-1-yl)phenyl)-5,6-dihydropyridine-1(2H)-carboxylate]	0.00153	0.0127	0.0114
C[C@@H]1CN(c2cc(F)c(C3=CCN(c4ncc(F)cn4)CC3)c(F)c2NC(=O)c2c[nH]c(=O)cc2C(F)(F)F)C[C@H](C)N1C [Example 145, N-(2,4-difluoro-3-(1-(5-fluoropyrimidin-2-yl)-1,2,3,6-tetrahydropyridin-4-yl)-6-((3S,5R)-3,4,5-trimethylpiperazin-1-yl)phenyl)-6-oxo-4-(trifluoromethyl)-1,6-dihydropyridine-3-carboxamide]	0.00084	0.0139	0.0589
C[C@@H]1CN(c2cc(F)c(C3=CCN(c4ncc(C#N)s4)CC3)c(F)c2NC(=O)c2c[nH]c(=O)cc2C(F)(F)F)C[C@H](C)N1C [Example 148, N-(3-(1-(5-cyanothiazol-2-yl)-1,2,3,6-tetrahydropyridin-4-yl)-2,4-difluoro-6-((3S,5R)-3,4,5-trimethylpiperazin-1-yl)phenyl)-6-oxo-4-(trifluoromethyl)-1,6-dihydropyridine-3-carboxamide]	0.00209	0.0129	0.0749
C[C@@H]1CN(c2cc(F)c(C3=CCCN(c4ncc(C#N)s4)C3)c(F)c2NC(=O)c2c[nH]c(=O)cc2C(F)(F)F)C[C@H](C)N1C [Example 149, N-(3-(1-(5-cyanothiazol-2-yl)-1,2,5,6-tetrahydropyridin-3-yl)-2,4-difluoro-6-((3S,5R)-3,4,5-trimethylpiperazin-1-yl)phenyl)-6-oxo-4-(trifluoromethyl)-1,6-dihydropyridine-3-carboxamide]	0.0018	0.0146	0.106
Cc1sc(-c2c(F)cc(N3CCN(C)[C@@H](C)C3)c(NC(=O)c3ccc(F)cc3C(F)F)c2F)nc1C(=O)N1CCCC1 [Example 153, (S)-2-(difluoromethyl)-N-(6-(3,4-dimethylpiperazin-1-yl)-2,4-difluoro-3-(5-methyl-4-(pyrrolidine-1-carbonyl)thiazol-2-yl)phenyl)-4-fluorobenzamide]	0.00118	0.005	0.0701
Cc1sc(-c2c(F)cc(N3CCN(C)[C@@H](C)C3)c(NC(=O)c3ccc(F)cc3C(F)(F)F)c2F)nc1C(=O)N1CCCC1 [Example 154, (S)—N-(6-(3,4-dimethylpiperazin-1-yl)-2,4-difluoro-3-(5-methyl-4-(pyrrolidine-1-carbonyl)thiazol-2-yl)phenyl)-4-fluoro-2-(trifluoromethyl)benzamide]	0.00064	0.0114	0.092
C[C@@H]1CN(c2cc(F)c(-c3cnc(N4CC5CCC(C4)O5)nc3)c(F)c2NC(=O)c2c[nH]c(=O)cc2C(F)F)C[C@H](C)N1C [Example 156, N-(3-(2-(8-oxa-3-azabicyclo[3.2.1]octan-3-yl)pyrimidin-5-yl)-2,4-difluoro-6-((3S,5R)-3,4,5-trimethylpiperazin-1-yl)phenyl)-4-(difluoromethyl)-6-oxo-1,6-dihydropyridine-3-carboxamide]	0.00196	0.0154	0.0812

Next, values leading:

Kd (WDR5 [1]) [µM]	IC50 (WDR5 [2]) [µM]	EC50 (MV4-11 cells) [µM]	SMILES
0.00165	0.012	0.0185	COc1cnc(N2CC=C(c3c(F)cc(N4C[C@@H](C)N(C)[C@@H](C)C4)c(NC(=O)c4c[nH]c(=O)cc4C(F)(F)F)c3F)C2)nc1 [Example 139, N-(2,4-difluoro-3-(1-(5-methoxypyrimidin-2-yl)-2,5-dihydro-1H-pyrrol-3-yl)-6-((3S,5R)-3,4,5-trimethylpiperazin-1-yl)phenyl)-6-oxo-4-(trifluoromethyl)-1,6-dihydropyridine-3-carboxamide]
0.00165	0.021	0.239	C[C@@H]1CN(c2cc(F)c(C3=CCCN(c4ncc(F)cn4)C3)c(F)c2NC(=O)c2c[nH]c(=O)cc2C(F)(F)F)C[C@H](C)N1C [Example 146, N-(2,4-difluoro-3-(1-(5-fluoropyrimidin-2-yl)-1,2,5,6-tetrahydropyridin-3-yl)-6-((3S,5R)-3,4,5-trimethylpiperazin-1-yl)phenyl)-6-oxo-4-(trifluoromethyl)-1,6-dihydropyridine-3-carboxamide]
0.00071	0.0195	0.0376	C[C@@H]1CN(c2cc(F)c(C3=CCN(c4ncc(F)cn4)C3)c(F)c2NC(=O)c2c[nH]c(=O)cc2C(F)(F)F)C[C@H](C)N1C [Example 147, N-(2,4-difluoro-3-(1-(5-fluoropyrimidin-2-yl)-2,5-dihydro-1H-pyrrol-3-yl)-6-((3S,5R)-3,4,5-trimethylpiperazin-1-yl)phenyl)-6-oxo-4-(trifluoromethyl)-1,6-dihydropyridine-3-carboxamide]
0.00053	0.0129	0.0484	C[C@@H]1CN(c2cc(F)c(C3=CCN(c4ncc(C#N)s4)C3)c(F)c2NC(=O)c2c[nH]c(=O)cc2C(F)(F)F)C[C@H](C)N1C [Example 150, N-(3-(1-(5-cyanothiazol-2-yl)-2,5-dihydro-1H-pyrrol-3-yl)-2,4-difluoro-6-((3S,5R)-3,4,5-trimethylpiperazin-1-yl)phenyl)-6-oxo-4-(trifluoromethyl)-1,6-dihydropyridine-3-carboxamide]
0.00068	0.0153	0.024	C[C@@H]1CN(c2cc(F)c(C3=CCN(c4ccnc(C#N)n4)CC3)c(F)c2NC(=O)c2c[nH]c(=O)cc2C(F)(F)F)C[C@H](C)N1C [Example 152, N-(3-(1-(2-cyanopyrimidin-4-yl)-1,2,3,6-tetrahydropyridin-4-yl)-2,4-difluoro-6-((3S,5R)-3,4,5-trimethylpiperazin-1-yl)phenyl)-6-oxo-4-(trifluoromethyl)-1,6-dihydropyridine-3-carboxamide]
0.00121	0.0112	0.074	C[C@H]1CN(c2cc(F)c(-c3cnc(N4CC5CCC(C4)O5)nc3)c(F)c2NC(=O)c2c[nH]c(=O)cc2C(F)F)CCN1C [Example 155, (S)—N-(3-(2-(8-oxa-3-azabicyclo[3.2.1]octan-3-yl)pyrimidin-5-yl)-6-(3,4-dimethylpiperazin-1-yl)-2,4-difluorophenyl)-4-(difluoromethyl)-6-oxo-1,6-dihydropyridine-3-carboxamide-]

Reference: patent US20200385371A1 (Propellon Therapeutics Inc., priority 2017, published 2020)
